This is an account of results in patent publication US6124281A, “Azolobenzazepine derivatives as neurologically active agents” (Zeneca Limited, priority 1998, dated 2000).

In test [1] the target is T1, N-methyl-D-aspartate receptor (Rattus norvegicus, UniProt P35439).
T1 construct: Freshly dissected cortices and hippocampi are homogenized in 0.32M sucrose; from tissue; host or cells: cortices and hippocampi of adult male Sprague-Dawley rats, synaptic membranes
The test can be described thus: [3H]-glycine Binding Assay. The following applies: 20 nM [3H]-glycine, rat cortex and hippocampus synaptic membranes, pH 7.1, 30 minutes at 4° C. On the set-up: species or system Sprague-Dawley rat. The procedure:
[^3 H]-glycine Binding Assay
In the [^3 H]-glycine binding assay, neuronal synaptic membranes are prepared from adult (about 250 g) male Sprague-Dawley rats. Freshly dissected cortices and hippocampi are homogenized in 0.32M sucrose (110 mg/mL). Synaptosomes are isolated by centrifugation (1000×g, 10 minutes), the supernatant is pelleted (20,000×g, 20 minutes) resuspended in double-distilled water. The suspension was centrifuged for 20 minutes at 8,000×g. The resulting supernatant and buffy coat are washed twice (48,000×g, 10 minutes, resuspension in double-deionizedwater). The final pellet is quickly frozen (dry icelethanol bath) under double-deionized water and stored at -70° C.
On the day of the experiment, thawed synaptic membranes are homogenized with a Brinkmann Polytron (TM, Brinkmann Instruments, Westbury, N.Y.) tissue homogenizer in 50 mM tris(hydroxymethyl)aminomethane citrate, pH 7.1. The membranes are incubated with 0.04% Sufact-AMPS X100 (TM, Pierce, Rockford, Ill.) in buffer for 20 minutes at 37° C. and washed six times by centrifugation (48,000×g, 10 minutes) and resuspended in buffer. The final pellet is homogenized at 200 mg wet weight/mL of the buffer for the binding assay.
For [^3 H]-glycine binding at the N-methyl-D-aspartate receptor, 20 nM [^3 H]-glycine (40-60 Ci/mmol, New England Nuclear, Boston, Mass.) is incubated with the membranes suspended in 50 mM tris(hydroxymethyl)aminomethane citrate, pH 7.1 for 30 minutes at 4° C. Glycine, 1mM, is used to define the nonspecific binding. Bound [^3 H]-glycine is isolated from free using a Brandel (Biomedical Research and Development Laboratories, Gaithersburg, Md.) cell harvester for vacuum filtration over glass fiber filters (Whatman GFB from Brandel, Gaithersburg, Md.) presoaked in 0.025% polyethylenimine. The samples retained on the glass fiber filters are rinsed 3 times with a total of 2.5 mL ice cold buffer. Radioactivity is estimated by liquid scintillation counting. IC50 values are obtained from a least-squares regression of a logit-log transformation of the data.

Test [2] has as its system NMDA-induced excitatory response of red nucleus cells. As to the kind of experiment: Rat Red Nucleus Test. In kind it is in vivo. The following applies: iv. On the procedure: The purpose of this test is to determine the effects of intravenously administered is glycine antagonists on the NMDA- induced excitatory response of red nucleus cells.
The procedure for the red nucleus test is as follows. Rats are anesthetized with chloral hydrate (400 mg/kg ip) and the femoral vein is catheterized for iv drug administration. Five-barrel micropipettes are stereotaxically positioned in the red nucleus. Typically, three to four of the five barrels are filled as follows: the recording barrel with 2M potassium citrate. the current balancing barrel with 4M NaCl, the drug barrel with 25 mM NMDA, and another drug barrel with 2.5 mM quisqualic acid (QA is only used in selectivity studies). NMDA is iontophoretically applied with an ejection current that is adjusted depending on the sensitivity of each individual red nucleus cell. The NMDA is cycled on and off (usually 30-60 sec. on and 60-120 sec. off) and the firing rate of the cell during each period is recorded. Once the baseline firing rate of the cell has been established, the test drug is administered iv. The inhibitory effect of the drug on the NMDA-induced excitatory response of the red nucleus cell can then be both qualitatively and quantitatively evaluated from the recordings and the raw data accumulated and the results are expressed as an ID50 value (The dose in mg/kg of the test drug which causes 50% inhibition).

The subject of test [3] is neuronal damage in the hippocampus. As to the kind of experiment: Gerbil Ischemic Model. To be noted: ip twice (pre- and post-occlusion), 20 mg/kg body weight. In kind it is in vivo, Mongolian gerbil. On the procedure: Adult female Mongolian gerbils (50-70 g) are anesthetized with 2 to 3% halothane. The bilateral common carotid arteries at the neck are exposed and occluded with microaneurysm clips. After 10 min (unless specified), the clips are removed and the blood flow through the carotid arteries is restored and the skin is sutured. Test compounds are administered intraperitoneally both pre- and post-occlusion, for example 45 minutes before and 5 minutes after occlusion of the carotid arteries. Sham-operated animals are treated in the same manner except that the arteries are not clamped, gross behavioral observations along with motor activity are recorded for 2 hours on the first (24 hours) day following the occlusion. After 4 days, subjects are sacrificed (decapitation), brains are removed, fixed, sectioned and stained with hematoxylin/eosin and cresyl violet.
The brain sections are rated for neuronal damage in the hippocampus using the following rating scale:
1=slight damage (up to 25%)--restricted to CA1 subiculum border
2=moderate damage (up to 50%)--obvious damage, restricted to less than half of CA1 field […]
Sections (7 micron) are evaluated from each brain. […] The average brain damage rating score for each group is recorded, and the damage scores of the drug treated group are compared to the vehicle-treated group using Wilcoxcon-Rank Sum test. […]

Another test deals with infarcted cortex. The test can be described thus: Rat Middle Cerebral Artery Test. The following applies: intravenously, 10 mg/kg per hour over 4 hours; permanent MCA occlusion. In kind it is in vivo, SHR rat. On the procedure: Rat Middle Cerebral Artery Test
Male SHR rats weight 280-320 g are used for these studies. The method used for permanent middle cerebral artery (MCA) occlusion is as described by Brint et al (1988). […] Following occlusions, drugs are administered intravenously via jugular catheter. Twenty-four hours after MCA/common carotid artery occlusion, the animals are sacrificed and their brains quickly removed. Coronal sections of 1 mm thickness are cut using a vibratome and stained with 2,3,5-triphenyl-2H-tetrazolium chloride (TTC) dye. Following staining, necrotic tissue is readily distinguished from the intact brain and the area of infarcted cortex can be traced on an image analyzer. The infarct volume for each section is quantified with an image analyzer, and the total infarct volume is calculated with a program that sums all interval volumes. See S. Brint et al. J. Cerebral Blood Flow 8:474-475 (1988). The statistical analysis of the difference between the volume of ischemic damage in the vehicle control and drug-treated animals is analyzed by Student's t-test. The results are expressed as the percent (%) change in infarct volume and are presented as the mean for animals.

The mark [4] stands for this setting: NMDA-induced excitatory response, compounds of the invention, read-out: ID50 (dose of the test drug which causes 50% inhibition).

Like-named read-outs stand apart in the source and are kept apart here.

As a reminder, the IC50 is the point on the concentration scale where inhibition reaches its midpoint. In test [1], `CCCCOC(=O)c1n[nH]c2c(=O)[nH]c3cc(Cl)ccc3c(=O)c12` [Example 27, 3-butoxycarbonyl-7-chloropyrazolo[3,4c][1]benzazepine-4,10(1H,9H)-dione] came in with an IC50 of 229 nM. In addition, the ED50 in test [2] (setting [4]) came out at 5.7 mg/kg.
The like results for `CCCOC(=O)c1n[nH]c2c(=O)[nH]c3cc(Cl)ccc3c(=O)c12` [Example 28, 3-propoxycarbonyl-7-chloropyrazolo[3,4-c][1]benzazepine-4,10(1H,9H)-dione] were, in that order, 27 nM and 4.6 mg/kg.
In the case of `C/C(=C\C(N)C(=O)O)CP(=O)(O)O` (stereo not shown) [CGP 37849, reference compound], the ED50 in test [2] (read-out: ID50 of reference agents shown to be active in this test) came to 1.7 mg/kg.
For the molecule `NC1CCN(O)C1=O` (stereo not shown) [HA-966, reference compound], the ED50 in test [2] (reference agents, read-out: ID50 of reference agents shown to be active in this test) was 7.9 mg/kg.
Turning to `O=c1[nH]c2cc(Cl)ccc2c(=O)c2n[nH]nc12` [Example 48(d), 7-Chloro-1,2,3-triazolo[4,5-c][1]benzazepine-4,10(1H,9H)-dione], the neuroprotection in test [3] is reported as 77%.
For `CC(C)OC(=O)c1n[nH]c2c(=O)[nH]c3cc(Cl)ccc3c(=O)c12` [Example 18, 7-Chloro-3-(isopropoxycarbonyl)pyrazolo[3,4-c][1]benzazepine-4,10(1H,9H)-dione], the “change in infarct volume” value with infarcted cortex is -19%. The same molecule had an IC50 in test [1] of 64 nM. Besides, the ED50 in test [2] (setting [4]) was determined as 3.5 mg/kg.
